Assay: solvent given as SMILES

O=C(O)c1ccc(O)cc1
Conditions	solvation free energy, 298 K [kcal/mol]
in C1CCOC1	-11.4
in C1COCCO1	-11.2
in CC(=O)N(C)C	-11.8
in CC(C)(C)O	-11.2
in CC(C)=O	-11.5
in CC(C)CO	-11.3
in CC(C)O	-11.5
in CCC(C)O	-11.2
in CCCCCCCCO	-11
in CCCCCCO	-11.2
in CCCCCO	-11.3
in CCCCO	-11.4
in CCCCOC(C)=O	-10.8
in CCCCOCCCC	-10.2
in CCCO	-11.5
in CCO	-11.7
in CCOC(C)=O	-11
in CCOCC	-10.8
in CN(C)C=O	-11.8
in CNC=O	-11.7
in O	-9.25

C=CC1CC=CCC1 (stereo not given)
Conditions	solvation free energy, 298 K [kcal/mol]
in CCCCCCCCCCCCCCCC	-4.94
in COCCO	-4.42
in CS(C)=O	-3.97
in O	0.36

CCCC(=O)CC
Conditions	solvation free energy, 298 K [kcal/mol]
in O	-3.07

CCOP(=S)(OCC)Oc1nc(Cl)c(Cl)cc1Cl
Conditions	solvation free energy, 298 K [kcal/mol]
in CCCCCCCCC=CCCCCCCCC(=O)OCC(COC(=O)CCCCCCCC=CCCCCCCCC)OC(=O)CCCCCCCC=CCCCCCCCC	-14.4

FC(F)(F)c1ccccc1C(F)(F)F
Conditions	solvation free energy, 298 K [kcal/mol]
in O	1.07

CCc1ccc(O)cc1
Conditions	solvation free energy, 298 K [kcal/mol]
in C=CCCCCCCC=C	-7.11
in CCCCCC	-6.53
in CCCCCCC	-6.47
in CCCCCCCC	-6.44
in Cc1ccc(C)cc1	-7.85
in Cc1cccc(C)c1	-7.83
in Cc1ccccc1C	-7.87
in O	-6.14

CCCCBr
Conditions	solvation free energy, 298 K [kcal/mol]
in C=CCCCCCCCCCCCCCC	-4.19
in CC(C)(C)O	-4.09
in CC(C)CO	-4.15
in CCC(C)O	-4.19
in CCCCCCCCCCO	-4.19
in CCCCCCCCO	-4.22
in CCO	-4.22
in ClC(Cl)(Cl)Cl	-4.75
in O	-0.34

c1ccc2c(c1)CCC2
Conditions	solvation free energy, 298 K [kcal/mol]
in O	-1.42

CC(CC(C)(C)C)CC(C)(C)CC(C)(C)C (stereo not given)
Conditions	solvation free energy, 298 K [kcal/mol]
in O	4.46

c1ccc2c(c1)OCCOCCOCCOc1ccccc1OCCOCCOCCO2
Conditions	solvation free energy, 298 K [kcal/mol]
in Cc1cccc(C)c1	-27.3
in O	-23.6

CCCCC(=O)O
Conditions	solvation free energy, 298 K [kcal/mol]
in O	-6.13

CCCOC
Conditions	solvation free energy, 298 K [kcal/mol]
in O	-1.66

O=C(OCc1ccccc1)c1ccccc1C(=O)OCc1ccccc1
Conditions	solvation free energy, 298 K [kcal/mol]
in O	-11.3

Nc1cc([N+](=O)[O-])cc(Cl)c1O
Conditions	solvation free energy, 298 K [kcal/mol]
in O	-10.2

NC(N)=S
Conditions	solvation free energy, 298 K [kcal/mol]
in CCCCCCO	-9.57
in CCCCCO	-9.72
in CCCCO	-9.97
in CCCO	-10.2
in CCO	-10.6

C=C1CCC2CC3C(C)CCC13C2(C)C (stereo not given)
Conditions	solvation free energy, 298 K [kcal/mol]
in O	0.83

FC(C(F)(F)F)C(F)(F)F
Conditions	solvation free energy, 298 K [kcal/mol]
in CCCCCCCCO	-1.12
in CN1CCCC1=O	-0.6
in O	2.01

c1ccc2c(c1)Cc1ccccc1-2
Conditions	solvation free energy, 298 K [kcal/mol]
in CC(=O)N(C)C	-10.4
in CC(C)(C)O	-8.84
in CC(C)CC(C)(C)C	-9.32
in CC(C)CCO	-8.95
in CC(C)CO	-9.21
in CC(C)O	-8.92
in CCC(C)O	-8.95
in CCCC(C)O	-9.03
in CCCCC(CC)CO	-9.14
in CCCCCC	-9.29
in CCCCCCC	-9.3
in CCCCCCCC	-9.29
in CCCCCCCCC=CCCCCCCCC(=O)OCC(COC(=O)CCCCCCCC=CCCCCCCCC)OC(=O)CCCCCCCC=CCCCCCCCC	-9.74
in CCCCCCCCCC	-9.32
in CCCCCCCCCCO	-9.33
in CCCCCCCCO	-9.32
in CCCCCCCO	-9.33
in CCCCCCO	-9.26
in CCCCCO	-9.24
in CCCCO	-9.15
in CCCO	-9.09
in CCO	-8.93
in CN1CCCC1=O	-10.5
in CO	-8.85
in O	-3.34

C=O
Conditions	solvation free energy, 298 K [kcal/mol]
in O	-2.75

CC1=CC(=O)CC(C)(C)C1
Conditions	solvation free energy, 298 K [kcal/mol]
in O	-5.18

CNC(=O)Oc1cccc2c1OC(C)(C)C2
Conditions	solvation free energy, 298 K [kcal/mol]
in O	-9.61

O=CN1CCOCC1
Conditions	solvation free energy, 298 K [kcal/mol]
in O	-9.41

c1ccc2c(c1)oc1ccccc12
Conditions	solvation free energy, 298 K [kcal/mol]
in CC(=O)N(C)C	-9.94
in CN1CCCC1=O	-10
in O	-3.31

CCCCCCCCCCCC
Conditions	solvation free energy, 298 K [kcal/mol]
in CCCCCC	-8.24
in CN(C)C=O	-6.15
in OCCOCCO	-4.02
in OCCOCCOCCO	-4.27
in OCCOCCOCCOCCO	-4.58

O=C1OC(C(O)CO)C(O)=C1O (stereo not given)
Conditions	solvation free energy, 298 K [kcal/mol]
in CCCO	-17.2
in CCO	-17.7

c1ccc2c(c1)ccc1ccccc12
Conditions	solvation free energy, 298 K [kcal/mol]
in C1CCOC1	-11.5
in C1COCCO1	-11.3
in CC(=O)N(C)C	-11.4
in CC(C)(C)O	-9.55
in CC(C)=O	-11.3
in CC(C)CC(C)(C)C	-9.75
in CC(C)CC(C)O	-9.7
in CC(C)CCO	-9.73
in CC(C)CO	-9.56
in CC(C)O	-9.64
in CCC(C)(C)O	-9.84
in CCC(C)O	-9.64
in CCCC(C)CO	-9.72
in CCCC(C)O	-9.79
in CCCCC(CC)CO	-9.87
in CCCCCC	-10
in CCCCCCC	-10.1
in CCCCCCCC	-10.1
in CCCCCCCCC=CCCCCCCCC(=O)OCC(COC(=O)CCCCCCCC=CCCCCCCCC)OC(=O)CCCCCCCC=CCCCCCCCC	-10.6
in CCCCCCCCCC	-10.1
in CCCCCCCCO	-10.3
in CCCCCCCO	-10.1
in CCCCCO	-10
in CCCCO	-9.89
in CCCCOC(C)=O	-11
in CCCCOCCCC	-10.5
in CCCO	-9.96
in CCO	-10
in CCOC(C)=O	-11.1
in CN1CCCC1=O	-11.5
in CO	-9.88
in COC(C)(C)C	-10.7
in COC(C)=O	-11.1
in ClC(Cl)(Cl)Cl	-11
in O	-3.8
in O=C1CCCCC1	-11.4

OCc1ccccc1
Conditions	solvation free energy, 298 K [kcal/mol]
in CCCCCCCCCCCCCCCC	-5.74
in N#Cc1ccccc1	-8
in O	-6.79

O=C(O)C=Cc1ccccc1
Conditions	solvation free energy, 298 K [kcal/mol]
in O	-8.38

ICI
Conditions	solvation free energy, 298 K [kcal/mol]
in O	-2.49

OC1CCCCCCCCCCC1
Conditions	solvation free energy, 298 K [kcal/mol]
in O	-5.35

Cc1c(C(=O)O)cc([N+](=O)[O-])cc1[N+](=O)[O-]
Conditions	solvation free energy, 298 K [kcal/mol]
in C1CCOC1	-17.5
in C1COCCO1	-17.5
in CC(C)(C)O	-16
in CC(C)CCO	-15.8
in CC(C)CO	-15.7
in CC(C)O	-16.2
in CCC(C)O	-16.1
in CCCC(C)O	-15.9
in CCCCCCCCCCO	-15.3
in CCCCCCCCO	-15.6
in CCCCCCCO	-15.9
in CCCCCCO	-15.8
in CCCCCO	-16
in CCCCO	-16.1
in CCCCOC(C)=O	-16.2
in CCCO	-16.2
in CCOC(C)=O	-16.4
in COC(C)=O	-16.7
in O	-13.6

ClCC(Cl)(Cl)Cl
Conditions	solvation free energy, 298 K [kcal/mol]
in O	-1.43

CCC
Conditions	solvation free energy, 298 K [kcal/mol]
in Brc1ccccc1	-1.43
in C1CCC2CCCCC2C1	-1.52
in C1COCCO1	-1.24
in CC1COC(=O)O1	-0.58
in CC(=O)N(C)C	-1.09
in CC(C)(C)O	-1.39
in CC(C)=O	-1.36
in CC(C)CCO	-1.33
in CC(C)CO	-1.32
in CC(C)O	-1.21
in CC(CC(C)(C)C)CC(C)(C)CC(C)(C)C	-2.21
in CCC(C)(C)O	-1.42
in CCC(C)CO	-1.32
in CCC(O)CC	-1.34
in CCCC(C)O	-1.34
in CCCCC	-1.81
in CCCCCC	-1.8
in CCCCCCC	-1.77
in CCCCCCCC	-1.74
in CCCCCCCCC	-1.71
in CCCCCCCCCC	-1.67
in CCCCCCCCCCCC	-1.54
in CCCCCCCCCCCCC	-1.54
in CCCCCCCCCCCCCC	-1.49
in CCCCCCCCCCCCCCC	-1.48
in CCCCCCCCCCCCCCCC	-1.42
in CCCCCCCCO	-1.28
in CCCCCCCO	-1.22
in CCCCCO	-1.32
in CCCCO	-1.35
in CCCO	-1.32
in CCO	-1.24
in CN1CCCC1=O	-0.89
in CN(C)C=O	-0.88
in CN(C)P(=O)(N(C)C)N(C)C	-1.15
in CO	-1.15
in COCCOCCO	-0.77
in COCCOCCOC	-1.24
in COCCOCCOCCOC	-0.95
in COCCOCCOCCOCCOC	-0.98
in CS(C)=O	-0.36
in Cc1ccc(C)cc1	-1.56
in Cc1cccc(C)c1	-1.62
in Cc1ccccc1C	-1.52
in ClC(Cl)(Cl)Cl	-1.83
in Clc1ccccc1	-1.61
in Ic1ccccc1	-1.51
in N#Cc1ccccc1	-1.11
in NC=O	0.19
in Nc1ccccc1	-0.79
in O	1.96
in OC1CCCCC1	-1.1
in OCCCOCCCO	-0.57
in OCc1ccccc1	-0.84
in c1ccccc1	-1.61

CN1C2CCC1CC(OC(=O)C(O)c1ccccc1)C2 (stereo not given)
Conditions	solvation free energy, 298 K [kcal/mol]
in O	-13.8

CCC(O)C(C)(C)C (stereo not given)
Conditions	solvation free energy, 298 K [kcal/mol]
in CCCCCCCC	-4.93
in CCCCCCCCCC	-4.85

Cc1ccc(C(=O)O)cc1C
Conditions	solvation free energy, 298 K [kcal/mol]
in CN(C)C=O	-11.6
in O	-6.55

CCCCN(CC)N=O
Conditions	solvation free energy, 298 K [kcal/mol]
in CC(C)CC(C)(C)C	-6.49
in O	-5.25

Source: the CombiSolv-Exp solvation set (Vermeire and Green 2021)
